# Laboratory results published in patent US7498409B2, “Screening assay for TLR7, TLR8 and TLR9 agonists and antagonists” (Schering Corporation, priority 2005, dated 2009).
# Experiments:
# wild-type TLR8 = target: T1, wild-type TLR8 (Homo sapiens, UniProt Q9NR97); experiment: NFκB-luciferase reporter assay in transfected HEK 293 cells, wild-type TLR8; format: cell-based
# T1 construct: printed for the mutant only, inferred for the wild type (N); expressed in transfected cells; host or cells: HEK 293
# T1 sequence (Q9NR97 1-1059 isoform Q9NR97-2): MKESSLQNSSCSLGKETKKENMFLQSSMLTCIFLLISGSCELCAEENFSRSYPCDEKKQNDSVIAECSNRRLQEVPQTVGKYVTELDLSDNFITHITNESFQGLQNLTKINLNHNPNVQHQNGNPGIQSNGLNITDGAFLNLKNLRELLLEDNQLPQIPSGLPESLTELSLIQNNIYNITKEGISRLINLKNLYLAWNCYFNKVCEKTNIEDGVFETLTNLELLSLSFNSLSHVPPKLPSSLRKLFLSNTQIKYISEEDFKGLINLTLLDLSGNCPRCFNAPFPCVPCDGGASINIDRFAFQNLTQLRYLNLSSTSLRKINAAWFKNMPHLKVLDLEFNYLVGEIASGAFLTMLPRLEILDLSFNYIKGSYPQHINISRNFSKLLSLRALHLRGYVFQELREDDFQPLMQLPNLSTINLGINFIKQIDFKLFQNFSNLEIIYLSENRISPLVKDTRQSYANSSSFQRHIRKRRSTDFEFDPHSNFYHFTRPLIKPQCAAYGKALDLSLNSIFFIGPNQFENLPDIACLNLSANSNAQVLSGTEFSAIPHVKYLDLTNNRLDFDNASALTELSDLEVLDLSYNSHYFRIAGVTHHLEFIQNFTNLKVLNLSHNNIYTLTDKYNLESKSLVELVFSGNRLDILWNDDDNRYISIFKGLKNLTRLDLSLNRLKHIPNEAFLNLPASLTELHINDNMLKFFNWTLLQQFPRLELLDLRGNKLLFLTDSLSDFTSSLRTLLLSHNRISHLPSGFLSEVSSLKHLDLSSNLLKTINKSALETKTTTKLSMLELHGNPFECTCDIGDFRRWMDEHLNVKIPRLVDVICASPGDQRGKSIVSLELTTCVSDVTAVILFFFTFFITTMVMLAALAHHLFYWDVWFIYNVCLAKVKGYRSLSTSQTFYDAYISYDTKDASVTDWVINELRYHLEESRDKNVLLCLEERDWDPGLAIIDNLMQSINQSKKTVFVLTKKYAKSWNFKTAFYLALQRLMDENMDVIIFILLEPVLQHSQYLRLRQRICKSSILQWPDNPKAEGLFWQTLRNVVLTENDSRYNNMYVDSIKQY
# From the text: (§1) Wells without agonist served as negative controls.
# wild-type TLR7 = target: T2, wild-type TLR7 (Homo sapiens, UniProt Q9NYK1); experiment: NFκB-luciferase reporter assay in transfected HEK 293 cells, wild-type TLR7; format: cell-based
# T2 construct: expressed in transfected cells; host or cells: HEK 293
# T2 sequence (Q9NYK1 27-1049): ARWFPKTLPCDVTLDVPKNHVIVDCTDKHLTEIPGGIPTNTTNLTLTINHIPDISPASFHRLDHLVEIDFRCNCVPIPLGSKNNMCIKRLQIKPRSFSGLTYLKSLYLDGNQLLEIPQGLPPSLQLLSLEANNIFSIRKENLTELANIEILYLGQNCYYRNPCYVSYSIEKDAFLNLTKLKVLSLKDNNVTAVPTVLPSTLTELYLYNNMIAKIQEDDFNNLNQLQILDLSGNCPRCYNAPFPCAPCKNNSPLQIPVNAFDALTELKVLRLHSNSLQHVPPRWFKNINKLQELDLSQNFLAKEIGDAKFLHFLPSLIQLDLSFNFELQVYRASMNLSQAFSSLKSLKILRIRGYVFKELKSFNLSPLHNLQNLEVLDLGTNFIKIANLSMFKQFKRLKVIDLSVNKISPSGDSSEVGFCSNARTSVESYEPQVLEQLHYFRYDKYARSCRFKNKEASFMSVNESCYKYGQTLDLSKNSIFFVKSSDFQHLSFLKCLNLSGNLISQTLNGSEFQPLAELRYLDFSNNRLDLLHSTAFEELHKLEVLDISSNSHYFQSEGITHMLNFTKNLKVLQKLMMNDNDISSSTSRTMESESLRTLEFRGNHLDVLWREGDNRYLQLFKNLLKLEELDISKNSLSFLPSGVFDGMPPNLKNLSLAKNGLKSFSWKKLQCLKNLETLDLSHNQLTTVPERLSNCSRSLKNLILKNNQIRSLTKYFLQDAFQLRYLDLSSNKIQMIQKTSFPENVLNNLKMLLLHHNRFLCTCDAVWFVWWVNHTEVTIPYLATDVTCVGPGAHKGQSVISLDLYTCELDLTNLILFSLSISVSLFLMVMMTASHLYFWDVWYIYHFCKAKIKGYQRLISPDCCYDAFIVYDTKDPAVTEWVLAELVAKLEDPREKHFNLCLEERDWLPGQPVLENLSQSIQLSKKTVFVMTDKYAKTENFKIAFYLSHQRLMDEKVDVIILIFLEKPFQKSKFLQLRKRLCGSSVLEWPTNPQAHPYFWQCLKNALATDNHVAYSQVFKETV
# From the text: as §1
# [1] = target: T3, mutant TLR7 containing a deletion in the second LRR (Homo sapiens, UniProt Q9NYK1, DEL102-106); experiment: NFκB-luciferase reporter assay in transfected HEK 293 cells, mutant TLR7 (pCMVhuTLR7Δ2); format: cell-based; parameters: fold lower concentration sufficient for full activation of mutant TLR7 versus wild-type TLR7: dose or concentration left out as unconfirmed
# T3 construct: expressed in transfected cells; host or cells: HEK 293
# T3 sequence (Q9NYK1 with tags, fused parts or gaps DEL102-106): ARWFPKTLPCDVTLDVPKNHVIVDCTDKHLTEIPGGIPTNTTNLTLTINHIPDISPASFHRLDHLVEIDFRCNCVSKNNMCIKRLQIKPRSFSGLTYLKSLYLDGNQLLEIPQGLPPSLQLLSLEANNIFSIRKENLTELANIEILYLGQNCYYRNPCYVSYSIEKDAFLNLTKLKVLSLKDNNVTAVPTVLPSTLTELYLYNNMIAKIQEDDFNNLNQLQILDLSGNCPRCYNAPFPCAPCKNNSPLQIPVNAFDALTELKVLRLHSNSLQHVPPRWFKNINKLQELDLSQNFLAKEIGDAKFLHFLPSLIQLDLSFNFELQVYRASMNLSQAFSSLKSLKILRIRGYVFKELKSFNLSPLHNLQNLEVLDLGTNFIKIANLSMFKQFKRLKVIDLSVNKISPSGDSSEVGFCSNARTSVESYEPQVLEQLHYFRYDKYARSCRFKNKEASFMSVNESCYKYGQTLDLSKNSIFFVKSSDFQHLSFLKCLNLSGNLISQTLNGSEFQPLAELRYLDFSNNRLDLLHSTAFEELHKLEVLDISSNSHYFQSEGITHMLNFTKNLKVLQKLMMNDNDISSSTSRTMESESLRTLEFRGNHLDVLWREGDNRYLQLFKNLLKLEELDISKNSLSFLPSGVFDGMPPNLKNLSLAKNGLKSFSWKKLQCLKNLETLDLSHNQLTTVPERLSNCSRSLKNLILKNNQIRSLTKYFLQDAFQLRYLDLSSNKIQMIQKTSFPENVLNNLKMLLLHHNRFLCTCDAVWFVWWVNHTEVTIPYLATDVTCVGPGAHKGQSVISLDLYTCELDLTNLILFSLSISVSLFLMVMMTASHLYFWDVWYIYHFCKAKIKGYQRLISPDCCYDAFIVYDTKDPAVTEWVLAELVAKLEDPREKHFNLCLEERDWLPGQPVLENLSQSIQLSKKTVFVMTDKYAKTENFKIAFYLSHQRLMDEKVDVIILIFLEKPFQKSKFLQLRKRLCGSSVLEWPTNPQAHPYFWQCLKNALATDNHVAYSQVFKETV
# From the text: (§2) ID NO: 11) and the antisense primer [NT] ID NO: 12). […] The mutation was confirmed by DNA sequencing. […] Wells without agonist served as negative controls.
# [2] = tested on: mutant TLR7 containing a deletion in the second LRR; experiment: as above; format: cell-based, human; parameters: fold lower concentration sufficient for full activation of mutant TLR7 versus wild-type TLR7: dose or concentration left out as unconfirmed
# From the text: as §2
# [3] = target: T4, mutant TLR8 containing a deletion in the second LRR (Homo sapiens, UniProt Q9NR97, DEL100-104); experiment: NFκB-luciferase reporter assay in transfected HEK 293 cells, mutant TLR8 (pCMVhuTLR8Δ2); format: cell-based; details: HEK 293, 5 h
# T4 construct: expressed in transfected cells; host or cells: HEK 293
# T4 sequence (Q9NR97 with tags, fused parts or gaps DEL100-104): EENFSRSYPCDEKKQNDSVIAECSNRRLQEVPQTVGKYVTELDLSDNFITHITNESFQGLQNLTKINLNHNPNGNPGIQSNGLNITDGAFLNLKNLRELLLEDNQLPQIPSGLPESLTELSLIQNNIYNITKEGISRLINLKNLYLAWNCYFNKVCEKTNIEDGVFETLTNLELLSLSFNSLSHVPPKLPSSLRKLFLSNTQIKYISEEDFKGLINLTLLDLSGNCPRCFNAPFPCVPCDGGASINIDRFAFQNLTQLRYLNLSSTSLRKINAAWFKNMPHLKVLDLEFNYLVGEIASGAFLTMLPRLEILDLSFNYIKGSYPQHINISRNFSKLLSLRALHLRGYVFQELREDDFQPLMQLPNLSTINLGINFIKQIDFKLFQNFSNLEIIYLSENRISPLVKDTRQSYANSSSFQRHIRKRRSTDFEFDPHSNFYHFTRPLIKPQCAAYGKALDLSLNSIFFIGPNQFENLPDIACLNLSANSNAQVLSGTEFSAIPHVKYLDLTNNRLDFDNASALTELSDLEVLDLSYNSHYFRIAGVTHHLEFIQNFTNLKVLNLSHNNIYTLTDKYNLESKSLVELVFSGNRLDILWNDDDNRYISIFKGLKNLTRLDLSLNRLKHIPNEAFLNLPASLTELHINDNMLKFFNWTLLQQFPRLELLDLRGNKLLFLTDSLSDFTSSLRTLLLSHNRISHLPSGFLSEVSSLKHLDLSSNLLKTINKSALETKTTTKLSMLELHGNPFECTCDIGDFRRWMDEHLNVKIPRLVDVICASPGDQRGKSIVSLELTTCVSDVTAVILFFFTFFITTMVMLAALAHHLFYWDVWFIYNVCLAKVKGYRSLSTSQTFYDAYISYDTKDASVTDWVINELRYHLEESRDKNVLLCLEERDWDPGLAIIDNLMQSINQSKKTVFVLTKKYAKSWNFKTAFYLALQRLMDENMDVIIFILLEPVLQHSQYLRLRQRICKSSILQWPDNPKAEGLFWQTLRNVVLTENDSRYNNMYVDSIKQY
# From the text: The mutation was confirmed by DNA sequencing.
# as §1
structure (smiles),measurement,setting,value
CCOCc1nc2c(N)nc3ccccc3c2n1CC(C)(C)O [R848],concentration required to achieve 5-fold induction of luciferase,"wild-type TLR8; HEK 293, NFκB-luciferase",at least 0.5 μM
same,activation of wild-type TLR7 (luciferase activity),"wild-type TLR7; 10 nM R848, HEK 293, 5 h",did not result in significant activation
same,concentration giving close-to-maximum activation of wild-type TLR7,"wild-type TLR7; HEK 293, NFκB-luciferase",1 µM
same,induction of luciferase activity,"[1]; 10 nM R848, HEK 293, 5 h, vs medium alone",6 fold
same,fold lower concentration sufficient for full activation of mutant TLR7 versus wild-type TLR7,[2]; compared with for wild-type TLR7,10 fold
same,induction of luciferase,[3]; 50 nm of R848,~10 fold
C=CCn1c(=O)n([C@@H]2O[C@H](CO)[C@@H](O)[C@H]2O)c2nc(N)[nH]c(=O)c21 [loxoribine],concentration at which wild-type TLR7 is activated,"wild-type TLR7; HEK 293, NFκB-luciferase",greater than 0.5 mM
same,concentration achieving the same activation with mutant TLR7,[1]; same activation as wild-type TLR7 at >0.5 mM,0.1 mM
same,fold lower concentration for same activation of mutant TLR7 versus wild-type TLR7,[2]; 0.1 mM versus 0.5 mM,5 fold
O=c1ccn([C@@H]2O[C@H](CO)[C@@H](O)[C@H]2O)c(=O)[nH]1 [uridine],activation of wild-type TLR8 (luciferase),"wild-type TLR8; 4.5 mM uridine, HEK 293, 5 h",3 fold
same,activation of mutant TLR8 (luciferase),[3]; 4.5 mM uridine,15 fold
